Results published in patent publication US20260248788A1, “NEW COMPOUNDS AND TREATMENT OF RENAL CELL CARCINOMA” (TRUSTLIFE THERAPEUTICS INC., priority 2023, published 2026).
Entries after “also recorded” stand apart in the source; their conditions may differ. *1 amine or outer side, *2 acyl side, *3 side chain or, on linkers, in order; H or OH if unused. Where a SMILES comes first, the peptide text is derived from it. Bridges are numbered along the chain shown (N, C = ends). Roman numbers before positions name the chains, in order. [ ]: non-standard residue; d: D form. Actinocin(9to1) = Cc1c2oc3c(C)ccc(C(=O)[*:1])c3nc-2c(C(=O)[*:2])c(N)c1=O; NMeV = CN[C@H](C(=O)O)C(C)C; Sar = CNCC(=O)O

Columns and labels:
Format in all cases: cell-based, human
RRM2 = assay: Western blot of RRM2 protein level in drug-treated Caki-1; conditions: Caki-1, 24 h; NVP-TAE684 3 nM, MK-0752 5 nM, withaferin-a 4 μM, actinomycin-d 0.3 nM; vs DMSO
Procedure: (§1) Cell culture 1: Human clear cell renal cell carcinoma (ccRCC) cell line Caki-1 was obtained from the Karolinska Institute of Environmental Medicine, Stockholm, Sweden, derived from a ccRCC patient. The cells were cultured in RPMI 1640 medium with 10% fetal bovine serum (FBS) and 1% penicillin/streptomycin. The cells were cultivated at 37° C. in a humidified incubator with 5% CO2.
(§2) TG-101209, NVP-TAE684, MK-0752, actinomycin-d, and panobinostat were purchased from Selleckchem (S2692, S1108, S2660, S8964, S1030, Selleckchem, Houston, TX, USA), and withaferin-a was purchased from Sigma (W4394, Sigma-Aldrich, Saint Louis, MO, USA). These drugs were dissolved in DMSO. The cells (from cell culture 1) were seeded in a 96-well plate at 20×10^3 cells per well. After seeding for 24 h, the cells were treated for 24 h with the target drugs: TG-101209 (6 nM), NVP-TAE684 (3 nM), MK-0752 (5 nM), withaferin-a (4 μM), actinomycin-d (0.3 nM), and panobinostat (5 nM). The cells in the negative control group were only treated by DMSO for one day.
The cells were washed with phosphate-buffered saline (PBS) and lysed with CelLytic M (C2978, Sigma-Aldrich, Saint Louis, MO, USA) lysis buffer containing protease inhibitors. The lysates were centrifuged at 12 000 rpm for 5 min, and the supernatant was collected. The proteins were separated by Mini-PROTEAN® TGX™ Precast Gels (BioRad, Berkeley, CA, USA) and transferred to a Trans-Blot Turbo Mini 0.2 μm PVDF Transfer Packs membrane (BioRad, Berkeley, CA, USA) by using Trans-Blot® Turbo™ Transfer System (Bio-Rad, Berkeley, CA, USA). The antibodies for BUB1B (HPA008419), RRM2 (HPA056994), CEP55 (HPA023430), ASF1B (HPA069385), CCNB2 (HPA008873), and GAPDH (sc47724, Santa Cruz Biotechnology, Inc.) were used for primary immunoblotting. All the antibodies were diluted at 1:10000 concentration. The membranes were incubated in primary antibody solution overnight at 4° C. with gentle rocking. […] The protein bands were detected with ImageQuanat™ LAS 500 (29-0050-63, GE) automatic exposure procedure or 6 min exposure.

Caki-1 = assay: Cell Counting Kit-8 (CCK-8) cell viability assay; conditions: Caki-1, 24 h; TG-101209 6 nM, NVP-TAE684 3 nM, MK-0752 5 nM, withaferin-a 4 μM, panobinostat 5 nM; vs DMSO
Procedure: Cell culture 1: Human clear cell renal cell carcinoma (ccRCC) cell line Caki-1 was obtained from the Karolinska Institute of Environmental Medicine, Stockholm, Sweden, derived from a ccRCC patient. The cells were cultured in RPMI 1640 medium with 10% fetal bovine serum (FBS) and 1% penicillin/streptomycin. The cells were cultivated at 37° C. in a humidified incubator with 5% CO2. TG-101209, NVP-TAE684, MK-0752, actinomycin-d, and panobinostat were purchased from Selleckchem ([…], […], […], […], […], Selleckchem, Houston, TX, USA), and withaferin-a was purchased from Sigma (W4394, Sigma-Aldrich, Saint Louis, MO, USA). These drugs were dissolved in DMSO. The cells (from cell culture 1) were seeded in a 96-well plate at 20×10^3 cells per well. After seeding for 24 h, the cells were treated for 24 h with the target drugs: TG-101209 (6 nM), NVP-TAE684 (3 nM), MK-0752 (5 nM), withaferin-a (4 μM), actinomycin-d (0.3 nM), and panobinostat (5 nM). The cells in the negative control group were only treated by DMSO for one day. Cell proliferation was detected by Cell Counting Kit-8 (CCK-8) assay. The 10 μl of CCK-8 reagent (1:10) was added to each well of 96-well plate with siRNA transfected cells or drug-treated cells by manufacturer's instruction. The 96-well plate was incubated at 37° C. for 2 hours and then measured absorbance at 450 nm using a microplate reader (Hidex Sense Beta Plus).

Caki-1 cells [1] = assay: MTT cell viability assay
Procedure: (§3) Cell culture 2: Caki-1 was purchased from CLS Cell Lines Service (Germany). The cells were maintained in McCoy's 5A (modified) medium (16600082, Thermo Fisher Scientific, USA) and supplemented with 10% fetal bovine serum (FBS, F7524, Sigma-Aldrich), 1% Penicillin/Streptomycin (P4333, Sigma-Aldrich).
The cytotoxic effects of the TG-101209 and its alternatives on the Caki-1 cells were tested by MTT (Thiazolyl Blue Tetrazolium Bromide) method. 1.5×10^4 cells were seeded per well in a 96-well plate in 100 μL growth media. […] After the incubation period, 5 mg/ml MTT (M2128, Sigma-Aldrich) solution in PBS (10 μL) was added to each well. After 1 hour, the MTT solution and all media were removed from the wells. 100 μl of DMSO was added and mixed to dissolve the formazan crystals. Cell viability was analysed by measuring the absorbance of the dissolved formazan at a wavelength of 570 nm with a microplate reader (Hidex Sense Beta Plus).

BUB1B [2] = assay: Western blot of BUB1B in Caki-1 cells treated with TG-101209 derivatives; conditions: Caki-1 cells, 5 μM of target drug, 1 day (FIG. 41, 56)
Procedure: as §3
The target drugs developed as alternatives to TG-101209, were dissolved in 0.1% DMSO (41639, Sigma-Aldrich). Caki-1 cells from cell culture 2 were seeded in a 6-well plate at 3×10^5 cells per well. […]
The cells were washed with PBS solution and then lysed with CelLytic M (C2978, Sigma-Aldrich) lysis buffer containing protease inhibitors (11836170001, Roche). The cell lysates were centrifuged at 12 000 rpm for 10 min and supernatants were collected. Protein Assay Dye Reagent (5000006, Bio-Rad) was used for the determination of protein concentration. The absorbance of the proteins was measured spectrophotometrically at 595 nm by a microplate reader (Hidex Sense Beta Plus). Protein electrophoresis was performed using Mini-PROTEAN® TGX™ Precast Gels (4561086, Bio-Rad) and then the separated proteins were transferred to a Trans-Blot Turbo Mini 0.2 μm PVDF Transfer Packs membrane (1704158, Bio-Rad) by using Trans-Blot® Turbo™ Transfer System (Bio-Rad). The membrane was blocked with 5% skim milk for 30 min at 4° C. with gentle rocking. After blocking, the membrane was treated with primary antibodies: Anti-BUB1B (HPA008419, Human Protein Atlas, Sweden) and Anti-Beta actin (ab8227, Abcam) as a loading control overnight at 4° C. on a rocking platform. After the treatment of primary antibodies, the membrane was washed three times with TBS-T buffer (A09-7500-100, Medicago). Then, Goat anti-Rabbit IgG-HRP (ab205718, Abcam) was treated as the secondary antibody for 30 min at 4° C. with gentle rocking.

Caki-1 cells [3] = assay: LDH cytotoxicity assay; conditions: Caki-1, 10 nM-30 μM
Procedure: as §3
Lactate dehydrogenase (LDH) assay was performed with LDH Assay Kit (ab65393). […] 20 μl of media was analysed with LDH Assay Kit as per manufacturer's instruction.

BUB1B [4] = assay: Western blot of BUB1B protein level in drug-treated Caki-1; conditions: Caki-1, TG-101209 6 nM, 24 h, vs DMSO negative control
Procedure: as §1, §2
The cells were washed with phosphate-buffered saline (PBS) and lysed with CelLytic M (C2978, Sigma-Aldrich, Saint Louis, MO, USA) lysis buffer containing protease inhibitors. […] The protein bands were detected with ImageQuanat™ LAS 500 (29-0050-63, GE) automatic exposure procedure or 6 min exposure.

SMILES	protein level of RRM2 (Western blot) (RRM2)	cell viability (CCK-8) (Caki-1)	change of IC50 values after 2 days compared to 1 day treatment (Caki-1 cells [1]; Caki-1 (FIG. 53-54))	effect on cell viability (MTT) (Caki-1 cells [1]; Caki-1, 10 μM, 1 day, first batch)	IC50 (Caki-1 cells [1]; Caki-1, 1 day (FIG. 43), text: after treatment with 5 μM) [µM]	Ranking, Cell viability (%) (Caki-1 cells [1]; top five, MTT assay, 10 μM, 1 day, rank 1 = greatest reduction)	expression levels of BUB1B (Western blot) (BUB1B [2])	cytotoxic effect and dose dependence (Caki-1 cells [3])	protein level of BUB1B (Western blot) (BUB1B [4])
COc1cc(N2CCC(N3CCN(C)CC3)CC2)ccc1Nc1ncc(Cl)c(Nc2ccccc2S(=O)(=O)C(C)C)n1 [NVP-TAE684]	significantly suppressed	significantly reduced							
Cc1c2oc3c(C)ccc(C(=O)N[C@@H]4C(=O)N[C@H](C(C)C)C(=O)N5CCC[C@H]5C(=O)N(C)CC(=O)N(C)[C@@H](C(C)C)C(=O)O[C@@H]4C)c3nc-2c(C(=O)N[C@@H]2C(=O)N[C@H](C(C)C)C(=O)N3CCC[C@H]3C(=O)N(C)CC(=O)N(C)[C@@H](C(C)C)C(=O)O[C@@H]2C)c(N)c1=O [actinomycin-d] (I: T[dV]P[Sar][NMeV] / II: T[dV]P[Sar][NMeV]; ester I:1-I:C, II:1-II:C; linker I:N-II:N via Actinocin(9to1))	does not work for inhibiting RRM2								
Cc1cnc(Nc2ccc(N3CCN(C)CC3)cc2)nc1Nc1cccc(S(=O)(=O)NC(C)(C)C)c1 [TG-101209, reference compound]		significantly reduced	largest decrease	most profound effect	~3	5	significantly lower the expression levels of BUB1B	dose dependent toxicity	significantly decreased; also recorded: significantly reduced
CC1=C(CO)C(=O)O[C@@H]([C@@H](C)[C@H]2CC[C@H]3[C@@H]4C[C@H]5O[C@]56[C@@H](O)C=CC(=O)[C@]6(C)[C@H]4CC[C@]23C)C1 [withaferin-a]	significantly suppressed	significantly reduced							
